Values of other authors, collected in US20060198860A1, “Synergistic blends of monoterpenes for mountain pine beetle pheromones” (Phero Tech Inc., priority 2005, published 2006).
Read-outs that look alike come from different tables or passages of the source.

Experiments:
mountain pine beetle [1] = conditions: for catch versus pheromones alone: five doses, less than 1.0 mg per day to over 6.0 g per day
mountain pine beetles = conditions: component alone
mountain pine beetle [2] = conditions: myrcene from 18 mg per day to 150 mg per day; traps also baited with trans-verbenol and exo-brevicomin
mountain pine beetle [3] = conditions: myrcene at approximately 100 mg per day
mountain pine beetle [4] = conditions: in one instance (of four Rocky Mountain locations); with trans-verbenol and exo-brevicomin

Compound: CC1=CCC2C(C1)C2(C)C (centres unmarked) [3-carene]
- catches versus pheromones alone (mountain pine beetle [1]; dose of 600 mg per day): higher than to the pheromones alone
- beetles caught (mountain pine beetles): one female

Compound: C=CC(=C)CCC=C(C)C [myrcene]
- catches versus pheromones alone (mountain pine beetle [1]; doses of 0.9 and 6.4 g per day): significantly higher
- numbers of both sexes captured on raising the release rate (mountain pine beetle [2]): more than doubling
- synergist relative to the foliage blend (mountain pine beetle [3]; females): over three times better
- synergist relative to the foliage blend (mountain pine beetle [3]; males): over four times a better synergist

Compound: CC1=CCC(=C(C)C)CC1 [terpinolene]
- catch versus pheromones alone (mountain pine beetle [1]): no combination of terpinolene with trans-verbenol and exo-brevicomin that resulted in higher catches
- response versus pheromones alone (mountain pine beetle [1]; highest dose (2.1 g per day)): significantly lowered
- synergist, times better than myrcene (mountain pine beetle [4]): ~88 times

Compound: CC1=CCC2CC1C2(C)C (stereo not drawn) [α-pinene]
- catch versus pheromones alone (mountain pine beetle [1]): at no dose was the catch significantly different

Compound: C=C1C=CC(C(C)C)CC1 (stereo not drawn) [β-phellandrene]
- catch versus pheromones alone (mountain pine beetle [1]): at no dose was the catch significantly higher

Compound: C=C1CCC2CC1C2(C)C (stereo not drawn) [β-pinene]
- catch versus pheromones alone (mountain pine beetle [1]): at no dose was the catch significantly different

Compound: CC1=CCC(C(C)C)=CC1 [γ-terpinene]
- catches versus pheromone controls (mountain pine beetle [1]; doses of 51.7 mg per day and 1.1 g per day): significantly higher

Compound: trans-verbenol
- beetles caught (mountain pine beetles): no beetles
